Measured values as given in paper PMC9749936, “Synthesis and structure–activity relationship studies of N-terminal analogues of the lipopeptide antibiotics brevicidine and laterocidine” (RSC Medicinal Chemistry, 2022).
Like-named read-outs stand apart in the source and are kept apart here. Bridge positions count the residues as written; N and C are the ends. Square brackets hold non-standard residues; d marks the D form. Peptide text beside a SMILES is read from it. * marks the point of attachment. ξ: configuration not given here. Octanoyl(7-Me) = CC(C)CCCCCC(=O)*; Hexanoyl(4ξ-Me) = CCC(C)CCC(=O)*; Myristoyl = CCCCCCCCCCCCCC(=O)*; dOrn = NCCC[C@@H](N)C(=O)O; X1 = CC[C@H](C)CCCCC(=O)*; Octanoyl = CCCCCCCC(=O)*; Orn = NCCC[C@H](N)C(=O)O; Dab = NCC[C@H](N)C(=O)O

Experiments:
K. pneumoniae ATCC 13883 = type: cell-based, Klebsiella pneumoniae
Description: (§1) The minimum inhibitory concentrations (MICs) of brevicidine and laterocidine analogues were determined against a panel of clinically relevant ESKAPE pathogens; Escherichia coli (E. coli), Klebsiella pneumoniae (K. pneumoniae), Acinetobacter baumannii (A. baumannii), Pseudomonas aeruginosa (P. aeuroginosa) and Staphylococcus aureus (S. aureus), which cause the majority of nosocomial infections in the United States.[16] […] In this resistance mechanism, the polymyxin target (lipid A) is modified, reducing binding affinity. For this reason, a strain of colistin-resistant E. coli carrying the mcr-1 gene was also included in the panel. […]
(§2) IV. Antimicrobial testing
(§3) All minimum inhibitory concentrations (MICs) were determined according to Clinical and Standards Laboratory Institute (CLSI) guidelines. Blood agar plates were inoculated with glycerol stocks of E. coli ATCC 25922, K. pneumoniae ATCC 13883, A. baumannii ATCC 17961, P. aeruginosa PAO1 and S. aureus USA300. The inoculated agar plates were then incubated for 16 h at 37 °C . Individually grown colonies were subsequently used to inoculate 5 mL aliquots of TSB that were then incubated at 37 °C with shaking at 220 rpm. E. coli 25922 MCR-1 glycerol stock was used to inoculate 5 mL of TSB supplemented with kanamycin that was then incubated for 16 h at 37 °C with shaking at 220 rpm. The next day the culture was diluted 100 fold in TSB supplemented with kanamycin and incubated at 37 °C with shaking at 220 rpm. In parallel, the lipopeptide antibiotics DMSO stocks to be assessed were serially diluted with MHB in polypropylene 96-well plates (50 µL in each well). Colistin sulfate stocks were dissolved in water before being diluted with MHB. Aliquots of the inoculated TSB were incubated until an OD600 of around 0.5 was reached. The bacterial suspensions were then diluted with MHB (2 x 10^5 CFU mL-1) and added to the microplates containing the test compounds (50 µL to each well). The well-plates were sealed with an adhesive membrane and after 18 h of incubation at 37 °C with shaking at 600 rpm, the wells were visually inspected for bacterial […]
(§4) growth. MIC values reported are based on three technical replicates and defined as the lowest concentration of the compound that prevented visible growth of bacteria. […]
(§5) The values obtained from a read-out at 415 nm were corrected for background (negative control) and transformed to a percentage relative to the positive control.
(§6) VI. HPLC and HRMS analysis of peptides
(§7) Peptide Name Chemical Calcd Mass found Calcd Overall […]

E. coli ATCC 25922 = type: cell-based, Escherichia coli
Description: as §1, §2, §3, §4, §5, §6, §7

A. baumannii ATCC 17961 = type: cell-based, Acinetobacter baumannii
Description: as §1, §2, §3, §4, §5, §6, §7

E. coli ATCC 25922 MCR-1 = type: cell-based, Escherichia coli
Description: as §1
Colisitin sulfate was purchased from Activate Scientific. Kanamycin monosulfate was purchased from MP Biomedicals. E. coli ATCC 25922, S. aureus USA300 (ATCC BAA1717), K. pneumoniae ATCC 13883 and A. baumannii ATCC 17961 belong to the American Type Culture Collection (ATCC). P. aeruginosa PAO1 was kindly provided by L.H.C. Quarles Van Ufford, Utrecht University, Utrecht, The Netherlands. E. coli ATCC 25922 MCR-1 was transfected in house using the pGDP2-MCR1 plasmid kindly provided by Yong-Xin Li, The University of Hong Kong, Hong Kong, China. Sheep blood agar plates (Ref. PB5039A) were purchased from Thermo Scientific. Tryptic soy broth (Ref. 02-200-500) was purchased from Scharlab. Mueller-Hinton broth (Ref. X927.1) was purchased from Carl Roth. Polypropylene 96-wells plates (Ref. 3879) were purchased from Corning. […]
(10.0 mL). 2-Chlorotrityl (CT) chloride resin (2.00 g, 0.81 mmol g-1) and DIPEA (420 µL, 2.40 mmol) were added. […]
A gradient […]
method for C14 - C16 laterocidine was employed, starting at 100% solvent A for 2 min, ramping up to 70 % solvent B over 45 min, ramping up to 100% solvent B over 1 min, remaining there for 6 min before ramping down to 100% solvent A and remaining there for 5 min. High resolution mass spectrometry (HRMS) spectra of brevicidine peptides were recorded by Analytical Services and Environmental Projects (ASEP) at Queen’s University Belfast on a Waters LCT Premier ToF mass spectrometer using the electrospray ionisation (ESI) technique. HRMS spectra of laterocidine peptides were performed on a Thermo Scientific Dionex UltiMate 3000 HPLC system with a Phenomenex Kinetex C18 (2.6 µm, 2.1 x 150 mm) column at 35 °C and equipped with a diode array detector. The following solvent system, at a flow rate of 0.3 mL/min, was used: solvent A = 0.1% formic acid in water, solvent B = 0.1% formic acid in acetonitrile. A gradient method was employed, starting at 95 % solvent A and 5 % solvent B for 1 min, ramping up to 95 % solvent B over 9 min, ramping up to 98 % solvent B over 1 min, remaining there for 1 min before ramping back down to 95 % solvent A over 2 min and remaining there for 1 min.
The system was connected to a Bruker micrOTOF-Q II mass spectrometer (ESI ionization) calibrated internally with sodium […]
as §2
as §3, with “MHB.” for “MHB. Aliquots of the inoculated TSB were incubated until an OD600 of around 0.5 was reached. The bacterial suspensions were then diluted with MHB (2 x 10^5 CFU mL-1) and added to the microplates containing the test compounds (50 µL to each well). The well-plates were sealed with an adhesive membrane and after 18 h of incubation at 37 °C with shaking at 600 rpm, the wells were visually inspected for bacterial”

P. aeruginosa PAO1 = type: cell-based, Pseudomonas aeruginosa
Description: as §1, §2, §3, §4, §5, §6, §7

Sheep red blood cells = type: cell-based
Description: Having ascertained the antimicrobial activity of all synthetic peptides against a panel of ESKAPE pathogens, we next assessed their mammalian toxicity with hemolytic assays using sheep red blood cells. The % hemolysis for all peptides at 64 μg mL^−1 was determined, with the hemolysis induced by the surfactant 0.1% Triton X-100 taken as 100%. […] Hemolysis was <1% for all analogues with a C8 chain or shorter, including the strongest antibacterial peptide C8-Lat (22). Hemolytic activity increased up to C14 (>50% for C14-Lat) and then decreased at longer chain lengths, perhaps due to decreased solubility of peptides or aggregation. […]
Phosphate-Buffered Saline (PBS) containing 0.002% Tween20 (buffer) five times. Then, the red blood cells were normalized to obtain a positive control read-out between 2.5 and 3.0 at 415 nm to stay within the linear range with the maximum sensitivity. A serial dilution of the compounds (128 – 1 µg/mL, 75 µL) was prepared in a 96-well polypropylene plate. The outer border of the plate was filled with 75 µL buffer. Each plate contained a positive control (0.1% Triton-X final concentration, 75 µL) and a negative control (buffer, 75 µL) in triplicate. The normalized blood cells (75 µL) were added and the plates were incubated at 37 °C for 1 h while shaking at 500 rpm. A flat-bottom polystyrene plate with 100 µL buffer in each well was prepared. After incubation, the plates were centrifuged (800 g for 5 min at room temperature) and 25 µL of the supernatant was transferred to their respective wells in the flat-bottom plate. The values obtained from a read-out at 415 nm were corrected for background (negative control) and transformed to a percentage relative to the positive control. […]

S. aureus USA300 = type: cell-based, Staphylococcus aureus
Description: as §1, §2, §3, §4, §5, §6, §7

[1] = CLSI broth microdilution in MHB, 18 h at 37 °C, visual inspection, three technical replicates
[2] = colistin-resistant strain carrying mcr-1, CLSI broth microdilution in MHB, 18 h at 37 °C, visual inspection, three technical replicates
[3] = red cells of sheep, 1 h, 64 μg mL^−1

SMILES | Antimicrobial activity (MIC) K. pneumoniae ATCC 13883 (K. pneumoniae ATCC 13883; [1]) | Antimicrobial activity (MIC) E. coli ATCC 25922 (E. coli ATCC 25922; CLSI broth microdilution in MHB, polypropylene 96-well plates, 18 h at 37 °C, visual inspection, three technical replicates) | Antimicrobial activity (MIC) A. baumannii ATCC 17961 (A. baumannii ATCC 17961; [1]) | Antimicrobial activity (MIC) E. coli ATCC 25922 MCR-1 (E. coli ATCC 25922 MCR-1; ATCC 25922, 18 h) | Antimicrobial activity (MIC) P. aeruginosa PAO1 (P. aeruginosa PAO1; [1]) | % Hemolytic activity, sheep red blood cells (Sheep red blood cells; peptide at 64 μg mL^−1, 1 h at 37 °C in PBS with 0.002% Tween20, read-out at 415 nm, relative to 0.1% Triton X-100 taken as 100%, triplicate) | Antimicrobial activity (MIC) S. aureus USA300 (S. aureus USA300; [1]) | Antimicrobial activity (MIC) K. pneumoniae ATCC 13883 (K. pneumoniae ATCC 13883; ATCC 13883, 18 h) | Antimicrobial activity (MIC) E. coli ATCC 25922 (E. coli ATCC 25922; ATCC 25922, 18 h) | Antimicrobial activity (MIC) A. baumannii ATCC 17961 (A. baumannii ATCC 17961; ATCC 17961, 18 h) | Antimicrobial activity (MIC) E. coli ATCC 25922 MCR-1 (E. coli ATCC 25922 MCR-1; [2]) | Antimicrobial activity (MIC) P. aeruginosa PAO1 (P. aeruginosa PAO1; PAO1, 18 h) | % Hemolytic activity, sheep red blood cells (Sheep red blood cells; [3]) | Antimicrobial activity (MIC) S. aureus USA300 (S. aureus USA300; USA300, 18 h)
CC[C@H](C)CCCCC(=O)N[C@@H](CCN)C(=O)N[C@H](C(=O)N[C@@H](CCN)C(=O)N[C@H]1CCNC(=O)[C@H]([C@@H](C)O)NC(=O)[C@H](CCN)NC(=O)[C@H](CCN)NC(=O)[C@H](CC(C)C)NC(=O)[C@@H](CC(C)C)NC(=O)[C@H](CCN)NC1=O)[C@@H](C)O [Colistin, colistin, reference compound] (X1-[Dab]T[Dab][Dab][Dab][dL]L[Dab][Dab]T; lactam 4-C (inferred); N-terminus assumed) | 0.5 µg/mL | 0.5 µg/mL | ≤0.25 µg/mL | 8 µg/mL | 4 µg/mL | <0.1% | >32 µg/mL |  |  |  |  |  |  | 
CCC(C)CCC(=O)N[C@H](CC(N)=O)C(=O)N[C@H](Cc1ccc(O)cc1)C(=O)N[C@H](Cc1c[nH]c2ccccc12)C(=O)N[C@H](CCCN)C(=O)N[C@@H](CCCN)C(=O)NCC(=O)N[C@H](CCCN)C(=O)N[C@@H](Cc1c[nH]c2ccccc12)C(=O)N[C@@H]1C(=O)N[C@@H]([C@@H](C)CC)C(=O)NCC(=O)N[C@@H](CO)C(=O)O[C@@H]1C (stereo partly drawn) [Compound 1, brevicidine] ({Hexanoyl(4ξ-Me)}-[dN][dY][dW][dOrn][Orn]G[dOrn]WTIGS; ester 9-C) |  |  |  |  |  |  |  | 2 µg/mL | 4 µg/mL | 4 µg/mL | 4 µg/mL | 8 µg/mL | 0.8% | >32 µg/mL
CC[C@H](C)[C@@H]1NC(=O)[C@@H](NC(=O)[C@H](Cc2c[nH]c3ccccc23)NC(=O)[C@@H](CCCN)NC(=O)CNC(=O)[C@H](CCCN)NC(=O)[C@@H](CCCN)NC(=O)[C@@H](Cc2c[nH]c3ccccc23)NC(=O)[C@@H](Cc2ccc(O)cc2)NC(=O)[C@@H](CO)NC(=O)CCCCCC(C)C)[C@@H](C)OC(=O)CNC(=O)CNC(=O)[C@H](CC(N)=O)NC1=O [Compound 2, laterocidine] ({Octanoyl(7-Me)}-[dS][dY][dW][dOrn][Orn]G[dOrn]WTINGG; ester 9-C; N-terminus assumed) |  |  |  |  |  |  |  | 2 to 4 µg/mL | 2 µg/mL | 2 µg/mL | 2 µg/mL | 4 µg/mL | 0.4% | >32 µg/mL
CCCCCCCC(=O)N[C@H](CO)C(=O)N[C@H](Cc1ccc(O)cc1)C(=O)N[C@H](Cc1c[nH]c2ccccc12)C(=O)N[C@H](CCCN)C(=O)N[C@@H](CCCN)C(=O)NCC(=O)N[C@H](CCCN)C(=O)N[C@@H](Cc1c[nH]c2ccccc12)C(=O)N[C@@H]1C(=O)N[C@@H]([C@@H](C)CC)C(=O)N[C@@H](CC(N)=O)C(=O)NCC(=O)NCC(=O)O[C@@H]1C [Compound 22] (Octanoyl-[dS][dY][dW][dOrn][Orn]G[dOrn]WTINGG; ester 9-C) |  |  |  |  |  |  |  | 2 µg/mL | 2 µg/mL | 4 µg/mL | 2 µg/mL | 2 µg/mL |  | >32 µg/mL
CCCCCCCCCCCCCC(=O)N[C@H](CO)C(=O)N[C@H](Cc1ccc(O)cc1)C(=O)N[C@H](Cc1c[nH]c2ccccc12)C(=O)N[C@H](CCCN)C(=O)N[C@@H](CCCN)C(=O)NCC(=O)N[C@H](CCCN)C(=O)N[C@@H](Cc1c[nH]c2ccccc12)C(=O)N[C@@H]1C(=O)N[C@@H]([C@@H](C)CC)C(=O)N[C@@H](CC(N)=O)C(=O)NCC(=O)NCC(=O)O[C@@H]1C [Compound 25] (Myristoyl-[dS][dY][dW][dOrn][Orn]G[dOrn]WTINGG; ester 9-C) |  |  |  |  |  |  |  | 8 µg/mL | 8 µg/mL | 2 µg/mL | 8 µg/mL | 8 µg/mL |  | 16 µg/mL
